Experimental data published in patent publication US10844077B2, “Thiazolyl-containing compounds for treating proliferative diseases” (Dana-Farber Cancer Institute, Inc., priority 2014, dated 2020).
Several values for one entry are separate records, joined by “and”; a condition that tells them apart may be missing. Equal entries are not always repeated.

Tests used:
Assay in all cases: KINATIV assay
Type in all cases: cell-based
Conditions in all cases: 1 μM, 90 minutes, BCWM.1 cells
YSK1 = YSK1 (Homo sapiens (Human), UniProt O00506)
Outline: (§1)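 Duplicate compound samples were compared with duplicate or quadruplicate controls. After harvesting and lysis, cells' lysates were probe-labeled (ATP-biotin), and kinase labeling was quantitated by ACTIVX.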

MAP3K2 = MAP3K2 (Homo sapiens (Human), UniProt Q9Y2U5)
Outline: as §1

TAO2 = TAO2 (Homo sapiens (Human), UniProt Q9UL54)
Outline: as §1

MAP2K1 = MAP2K1 (Homo sapiens (Human), UniProt Q02750)
Outline: as §1

Erk2 = Erk2 (Homo sapiens (Human), UniProt P28482)
Outline: as §1

TEC = TEC (Homo sapiens (Human), UniProt P42680)
Outline: as §1

CK2a1 = CK2a1 (Homo sapiens (Human), UniProt P68400)
Outline: as §1

Wnk1, Wnk2 = system: Wnk1, Wnk2
Outline: as §1

CDK4 = CDK4 (Homo sapiens (Human), UniProt P11802)
Outline: as §1

TLK1 = TLK1 (Homo sapiens (Human), UniProt Q9UKI8)
Outline: as §1

SRC = SRC (Homo sapiens (Human), UniProt P12931)
Outline: as §1

LCK = LCK (Homo sapiens (Human), UniProt P06239)
Outline: as §1

PI4KA, PI4KAP2 = system: PI4KA, PI4KAP2
Outline: as §1

TAO1, TAO3 = system: TAO1, TAO3
Outline: as §1

STLK6 = STLK6 (Homo sapiens (Human), UniProt Q9C0K7)
Outline: as §1

MLK3 = MLK3 (Homo sapiens (Human), UniProt Q16584)
Outline: as §1

NEK1 = NEK1 (Homo sapiens (Human), UniProt Q96PY6)
Outline: as §1

MARK2, MARK3 = system: MARK2, MARK3
Outline: as §1

FGR = FGR (Homo sapiens (Human), UniProt P09769)
Outline: as §1

ABL, ARG = system: ABL, ARG
Outline: as §1

[1] = system: ZC1/HGK, ZC2/TNIK, ZC3/MINK
Outline: as §1

PIK3CD = PIK3CD (Homo sapiens (Human), UniProt O00329)
Outline: as §1

MAP3K4 = MAP3K4 (Homo sapiens (Human), UniProt Q9Y6R4)
Outline: as §1

MAP3K5 = MAP3K5 (Homo sapiens (Human), UniProt Q99683)
Outline: as §1

MST1, MST2 = system: MST1, MST2
Outline: as §1

PAN3 = PAN3 (Homo sapiens (Human), UniProt Q58A45)
Outline: as §1

LRRK2 = LRRK2 (Homo sapiens (Human), UniProt Q5S007)
Outline: as §1

CDC2 = CDC2 (Homo sapiens (Human), UniProt P06493)
Outline: as §1

PIK3CG = PIK3CG (Homo sapiens (Human), UniProt P48736)
Outline: as §1

CDK11, CDK8 = system: CDK11, CDK8
Outline: as §1

PIP5K3 = PIP5K3 (Homo sapiens (Human), UniProt Q9Y2I7)
Outline: as §1

MAP3K1 = MAP3K1 (Homo sapiens (Human), UniProt Q13233)
Outline: as §1

MAP3K6 = MAP3K6 (Homo sapiens (Human), UniProt O95382)
Outline: as §1

AMPKa1, AMPKa2 = system: AMPKa1, AMPKa2
Outline: as §1

AurA, AurB, AurC = system: AurA, AurB, AurC
Outline: as §1

KSR1, KSR2 = system: KSR1, KSR2
Outline: as §1

CK1a = CK1a (Homo sapiens (Human), UniProt P48729)
Outline: as §1

p38b = p38b (Homo sapiens (Human), UniProt Q15759)
Outline: as §1

BRAF = BRAF (Homo sapiens (Human), UniProt P15056)
Outline: as §1

NEK4 = NEK4 (Homo sapiens (Human), UniProt P51957)
Outline: as §1

ACK = ACK (Homo sapiens (Human), UniProt Q07912)
Outline: as §1

MAST3 = MAST3 (Homo sapiens (Human), UniProt O60307)
Outline: as §1

Sequence of CDC2 (P06493 whole entry): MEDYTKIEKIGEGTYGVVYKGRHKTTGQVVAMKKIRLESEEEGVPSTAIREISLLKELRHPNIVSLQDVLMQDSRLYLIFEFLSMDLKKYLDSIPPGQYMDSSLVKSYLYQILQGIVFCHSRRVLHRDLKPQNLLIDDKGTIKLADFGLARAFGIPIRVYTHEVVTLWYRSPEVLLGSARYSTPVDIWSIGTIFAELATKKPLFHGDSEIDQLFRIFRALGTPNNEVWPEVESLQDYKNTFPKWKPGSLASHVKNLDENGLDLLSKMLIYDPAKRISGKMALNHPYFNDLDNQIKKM
Sequence of TLK1 (Q9UKI8 whole entry): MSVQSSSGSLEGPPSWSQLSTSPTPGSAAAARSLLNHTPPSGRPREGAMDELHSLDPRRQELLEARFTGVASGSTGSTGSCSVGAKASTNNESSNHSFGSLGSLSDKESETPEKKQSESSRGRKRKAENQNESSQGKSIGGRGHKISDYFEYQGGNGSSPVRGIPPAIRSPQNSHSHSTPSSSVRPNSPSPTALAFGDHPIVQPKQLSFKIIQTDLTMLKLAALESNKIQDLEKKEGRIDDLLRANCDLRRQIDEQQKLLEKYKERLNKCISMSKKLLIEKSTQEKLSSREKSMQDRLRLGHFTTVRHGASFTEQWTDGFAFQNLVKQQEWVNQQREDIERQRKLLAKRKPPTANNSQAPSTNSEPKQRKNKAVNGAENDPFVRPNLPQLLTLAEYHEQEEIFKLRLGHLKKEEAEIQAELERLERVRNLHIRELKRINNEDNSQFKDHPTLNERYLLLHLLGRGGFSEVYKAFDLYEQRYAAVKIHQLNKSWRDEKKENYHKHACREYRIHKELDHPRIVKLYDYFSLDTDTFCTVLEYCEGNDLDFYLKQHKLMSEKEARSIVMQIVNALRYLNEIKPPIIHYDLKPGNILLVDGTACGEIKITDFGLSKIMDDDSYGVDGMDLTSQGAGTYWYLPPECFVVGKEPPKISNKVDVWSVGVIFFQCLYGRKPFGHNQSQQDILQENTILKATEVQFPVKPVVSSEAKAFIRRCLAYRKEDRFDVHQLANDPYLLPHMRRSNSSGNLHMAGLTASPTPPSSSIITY
Sequence of TEC (P42680 whole entry): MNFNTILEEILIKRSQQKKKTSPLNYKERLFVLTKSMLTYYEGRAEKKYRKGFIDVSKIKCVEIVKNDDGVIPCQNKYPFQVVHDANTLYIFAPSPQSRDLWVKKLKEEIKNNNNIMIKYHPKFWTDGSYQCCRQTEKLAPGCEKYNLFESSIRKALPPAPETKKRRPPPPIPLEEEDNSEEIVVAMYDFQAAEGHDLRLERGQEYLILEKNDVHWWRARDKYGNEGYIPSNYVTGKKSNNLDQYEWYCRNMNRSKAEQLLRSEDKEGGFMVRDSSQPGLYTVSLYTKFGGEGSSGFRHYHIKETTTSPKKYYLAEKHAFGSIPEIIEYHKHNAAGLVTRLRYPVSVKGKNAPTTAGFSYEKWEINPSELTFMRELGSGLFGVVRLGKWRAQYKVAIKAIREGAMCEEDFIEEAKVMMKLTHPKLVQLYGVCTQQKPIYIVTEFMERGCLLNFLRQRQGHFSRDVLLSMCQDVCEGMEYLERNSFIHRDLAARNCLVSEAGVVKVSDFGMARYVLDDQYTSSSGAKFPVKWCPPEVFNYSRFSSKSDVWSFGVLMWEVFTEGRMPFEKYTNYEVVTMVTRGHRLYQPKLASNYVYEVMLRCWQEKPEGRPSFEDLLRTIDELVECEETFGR
Sequence of ACK (Q07912 whole entry): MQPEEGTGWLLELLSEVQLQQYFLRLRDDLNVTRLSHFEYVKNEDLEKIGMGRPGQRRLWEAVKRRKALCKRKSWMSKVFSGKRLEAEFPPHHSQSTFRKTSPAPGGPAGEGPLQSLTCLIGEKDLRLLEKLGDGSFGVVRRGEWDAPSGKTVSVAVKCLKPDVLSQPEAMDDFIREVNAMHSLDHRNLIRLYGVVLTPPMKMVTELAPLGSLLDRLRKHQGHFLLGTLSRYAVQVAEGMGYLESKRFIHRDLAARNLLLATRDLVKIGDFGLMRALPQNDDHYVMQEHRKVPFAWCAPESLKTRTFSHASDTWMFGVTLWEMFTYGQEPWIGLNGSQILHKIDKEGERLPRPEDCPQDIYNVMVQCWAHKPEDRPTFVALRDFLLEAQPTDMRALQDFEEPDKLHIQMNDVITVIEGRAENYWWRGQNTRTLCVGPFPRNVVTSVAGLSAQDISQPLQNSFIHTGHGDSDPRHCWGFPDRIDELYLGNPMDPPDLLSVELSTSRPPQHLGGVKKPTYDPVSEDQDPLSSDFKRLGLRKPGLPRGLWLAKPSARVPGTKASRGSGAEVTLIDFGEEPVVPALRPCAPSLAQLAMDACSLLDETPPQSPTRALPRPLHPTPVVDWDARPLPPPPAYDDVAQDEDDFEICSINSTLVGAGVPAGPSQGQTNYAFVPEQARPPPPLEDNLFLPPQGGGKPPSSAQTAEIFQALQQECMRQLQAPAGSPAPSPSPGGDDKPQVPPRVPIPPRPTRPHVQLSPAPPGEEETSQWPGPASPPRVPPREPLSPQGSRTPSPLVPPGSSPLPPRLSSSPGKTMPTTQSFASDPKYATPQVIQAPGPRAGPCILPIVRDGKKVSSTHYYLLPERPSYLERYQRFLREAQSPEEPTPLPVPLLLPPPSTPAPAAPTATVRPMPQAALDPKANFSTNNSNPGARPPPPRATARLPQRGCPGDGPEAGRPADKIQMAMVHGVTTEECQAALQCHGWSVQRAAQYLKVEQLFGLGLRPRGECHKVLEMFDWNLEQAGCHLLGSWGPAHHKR
Sequence of MLK3 (Q16584 whole entry): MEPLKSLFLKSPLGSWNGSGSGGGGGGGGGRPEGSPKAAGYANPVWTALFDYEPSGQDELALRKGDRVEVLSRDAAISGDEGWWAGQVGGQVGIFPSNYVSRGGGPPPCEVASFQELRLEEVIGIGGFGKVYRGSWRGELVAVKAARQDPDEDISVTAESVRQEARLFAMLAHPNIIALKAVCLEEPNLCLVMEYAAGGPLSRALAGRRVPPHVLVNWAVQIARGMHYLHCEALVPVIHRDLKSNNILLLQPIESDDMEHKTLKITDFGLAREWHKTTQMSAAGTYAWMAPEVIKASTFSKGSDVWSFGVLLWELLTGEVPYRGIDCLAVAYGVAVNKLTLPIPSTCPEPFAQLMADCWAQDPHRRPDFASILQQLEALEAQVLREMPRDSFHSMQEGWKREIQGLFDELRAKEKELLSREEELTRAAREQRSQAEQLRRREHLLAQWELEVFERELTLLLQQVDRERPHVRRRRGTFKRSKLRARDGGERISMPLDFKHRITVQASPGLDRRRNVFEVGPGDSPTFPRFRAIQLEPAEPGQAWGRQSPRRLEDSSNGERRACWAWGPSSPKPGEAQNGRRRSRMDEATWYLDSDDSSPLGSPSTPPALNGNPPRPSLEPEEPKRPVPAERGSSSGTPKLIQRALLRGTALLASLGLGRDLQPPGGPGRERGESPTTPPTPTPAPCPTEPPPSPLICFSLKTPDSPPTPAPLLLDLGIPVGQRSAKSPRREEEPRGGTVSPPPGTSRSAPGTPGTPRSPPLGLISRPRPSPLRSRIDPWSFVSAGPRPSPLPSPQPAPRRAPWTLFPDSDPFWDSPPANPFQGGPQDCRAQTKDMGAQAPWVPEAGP
Sequence of NEK1 (Q96PY6 whole entry): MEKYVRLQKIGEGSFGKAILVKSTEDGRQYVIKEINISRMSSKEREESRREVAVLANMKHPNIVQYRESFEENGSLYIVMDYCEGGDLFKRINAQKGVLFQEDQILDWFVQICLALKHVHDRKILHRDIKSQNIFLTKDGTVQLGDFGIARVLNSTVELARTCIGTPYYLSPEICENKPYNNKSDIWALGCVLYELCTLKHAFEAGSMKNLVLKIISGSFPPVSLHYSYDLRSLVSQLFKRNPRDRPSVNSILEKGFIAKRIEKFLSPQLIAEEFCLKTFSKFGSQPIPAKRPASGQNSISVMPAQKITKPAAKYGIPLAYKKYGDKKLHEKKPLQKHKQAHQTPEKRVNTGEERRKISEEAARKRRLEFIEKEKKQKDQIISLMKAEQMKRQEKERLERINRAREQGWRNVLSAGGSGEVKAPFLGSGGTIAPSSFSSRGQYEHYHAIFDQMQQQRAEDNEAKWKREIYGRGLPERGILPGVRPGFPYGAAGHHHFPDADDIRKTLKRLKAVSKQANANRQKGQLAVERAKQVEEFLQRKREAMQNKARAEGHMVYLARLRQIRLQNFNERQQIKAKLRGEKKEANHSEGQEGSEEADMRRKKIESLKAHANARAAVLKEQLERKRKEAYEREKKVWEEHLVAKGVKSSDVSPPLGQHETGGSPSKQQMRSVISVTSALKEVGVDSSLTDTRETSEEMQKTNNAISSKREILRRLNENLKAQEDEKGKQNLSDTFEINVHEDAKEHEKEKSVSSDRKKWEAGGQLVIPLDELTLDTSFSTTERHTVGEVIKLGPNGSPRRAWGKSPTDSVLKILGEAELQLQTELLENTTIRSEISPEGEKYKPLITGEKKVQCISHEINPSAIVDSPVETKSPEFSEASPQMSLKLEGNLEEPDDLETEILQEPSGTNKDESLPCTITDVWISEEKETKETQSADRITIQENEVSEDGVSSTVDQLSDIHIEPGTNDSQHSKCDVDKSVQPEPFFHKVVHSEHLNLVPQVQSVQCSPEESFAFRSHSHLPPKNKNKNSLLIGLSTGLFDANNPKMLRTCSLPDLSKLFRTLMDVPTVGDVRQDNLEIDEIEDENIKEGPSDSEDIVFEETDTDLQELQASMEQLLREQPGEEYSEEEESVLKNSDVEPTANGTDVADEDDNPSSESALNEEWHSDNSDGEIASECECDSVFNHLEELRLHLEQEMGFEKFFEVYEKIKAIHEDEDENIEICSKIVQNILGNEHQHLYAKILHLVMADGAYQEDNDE

SMILES: C=CC(=O)N1CCCCC(Nc2nccc(Nc3ncc(C(=O)Nc4c(C)cccc4C)s3)n2)C1 (stereo not drawn) [Example I-7]
- % change of MS signal compared to control sample (YSK1): −19.9%
- % change of MS signal compared to control sample (MAP3K2): 4.9%
- % change of MS signal compared to control sample (TAO2): −18.0%
- % change of MS signal compared to control sample (MAP2K1): −3.7%
- % change of MS signal compared to control sample (Erk2): −4.7%
- % change of MS signal compared to control sample (TEC): 85.1% and 58.6%
- % change of MS signal compared to control sample (CK2a1): 14.3%
- % change of MS signal compared to control sample (Wnk1, Wnk2): −8.6%
- % change of MS signal compared to control sample (CDK4): 16.7%
- % change of MS signal compared to control sample (TLK1): 1.8% and 5.5%
- % change of MS signal compared to control sample (SRC): >90%
- % change of MS signal compared to control sample (LCK): 96.5%
- % change of MS signal compared to control sample (PI4KA, PI4KAP2): −17.4%
- % change of MS signal compared to control sample (TAO1, TAO3): −1.8%
- % change of MS signal compared to control sample (STLK6): −16.3%
- % change of MS signal compared to control sample (MLK3): −4.6%
- % change of MS signal compared to control sample (NEK1): 11.4%
- % change of MS signal compared to control sample (MARK2, MARK3): −11.0%
- % change of MS signal compared to control sample (FGR): 94.7%
- % change of MS signal compared to control sample (ABL, ARG): >90% and >97%
- % change of MS signal compared to control sample [1]: 6.2%
- % change of MS signal compared to control sample (PIK3CD): −19.1%
- % change of MS signal compared to control sample (MAP3K4): −24.2%
- % change of MS signal compared to control sample (MAP3K5): −9.3%
- % change of MS signal compared to control sample (MST1, MST2): 9.5%
- % change of MS signal compared to control sample (PAN3): −0.2%
- % change of MS signal compared to control sample (LRRK2): −9.6%
- % change of MS signal compared to control sample (CDC2): −16.2%
- % change of MS signal compared to control sample (PIK3CG): −51.9%
- % change of MS signal compared to control sample (CDK11, CDK8): −3.5%
- % change of MS signal compared to control sample (PIP5K3): 4.3%
- % change of MS signal compared to control sample (MAP3K1): 7.9%
- % change of MS signal compared to control sample (MAP3K6): −21.3%
- % change of MS signal compared to control sample (AMPKa1, AMPKa2): −20.7% and −22.3%
- % change of MS signal compared to control sample (AurA, AurB, AurC): 0.4%
- % change of MS signal compared to control sample (KSR1, KSR2): −10.1%
- % change of MS signal compared to control sample (CK1a): −0.7%
- % change of MS signal compared to control sample (p38b): −1.5%
- % change of MS signal compared to control sample (BRAF): 21.7%
- % change of MS signal compared to control sample (NEK4): 7.9%
- % change of MS signal compared to control sample (ACK): 80.7% and 88.5%
- % change of MS signal compared to control sample (MAST3): −1.6%

SMILES: C=CC(=O)N1CCC(Cn2ccc(Nc3ncc(C(=O)Nc4c(C)cccc4Cl)s3)n2)C1 (stereo not drawn) [II-1]
- % change of MS signal compared to control sample (YSK1): −27.4%
- % change of MS signal compared to control sample (MAP3K2): 21.3%
- % change of MS signal compared to control sample (TAO2): −17.9%
- % change of MS signal compared to control sample (MAP2K1): −23.4%
- % change of MS signal compared to control sample (Erk2): −5.8%
- % change of MS signal compared to control sample (TEC): 91.5% and 80.8%
- % change of MS signal compared to control sample (CK2a1): 24.7%
- % change of MS signal compared to control sample (Wnk1, Wnk2): −3.8%
- % change of MS signal compared to control sample (CDK4): 2.2%
- % change of MS signal compared to control sample (TLK1): 7.1% and 5.7%
- % change of MS signal compared to control sample (SRC): >90%
- % change of MS signal compared to control sample (LCK): 92.4%
- % change of MS signal compared to control sample (PI4KA, PI4KAP2): −45.7%
- % change of MS signal compared to control sample (TAO1, TAO3): −17.2%
- % change of MS signal compared to control sample (STLK6): −0.8%
- % change of MS signal compared to control sample (MLK3): −18.0%
- % change of MS signal compared to control sample (NEK1): 14.9%
- % change of MS signal compared to control sample (MARK2, MARK3): −10.1%
- % change of MS signal compared to control sample (FGR): 87.8%
- % change of MS signal compared to control sample (ABL, ARG): 76.1% and 39.5%
- % change of MS signal compared to control sample [1]: 4.2%
- % change of MS signal compared to control sample (PIK3CD): −9.5%
- % change of MS signal compared to control sample (MAP3K4): −23.9%
- % change of MS signal compared to control sample (MAP3K5): −22.9%
- % change of MS signal compared to control sample (MST1, MST2): 3.1%
- % change of MS signal compared to control sample (PAN3): −7.0%
- % change of MS signal compared to control sample (LRRK2): −20.9%
- % change of MS signal compared to control sample (CDC2): −5.2% and 2.7%
- % change of MS signal compared to control sample (PIK3CG): −45.9%
- % change of MS signal compared to control sample (CDK11, CDK8): −9.2%
- % change of MS signal compared to control sample (PIP5K3): 16.3%
- % change of MS signal compared to control sample (MAP3K1): −1.2%
- % change of MS signal compared to control sample (MAP3K6): 18.9%
- % change of MS signal compared to control sample (AMPKa1, AMPKa2): −19.4% and −27.3%
- % change of MS signal compared to control sample (AurA, AurB, AurC): −3.6%
- % change of MS signal compared to control sample (KSR1, KSR2): −8.7%
- % change of MS signal compared to control sample (CK1a): −14.4%
- % change of MS signal compared to control sample (p38b): −19.0%
- % change of MS signal compared to control sample (BRAF): 6.9%
- % change of MS signal compared to control sample (NEK4): 18.5%
- % change of MS signal compared to control sample (ACK): 51.7% and 50.8%
- % change of MS signal compared to control sample (MAST3): 3.8%
